Entries after “also recorded” stand apart in the source; their conditions may differ.
Tests used:
Dup2 mice [1] = assay: Evans blue dye (EBD) uptake / membrane protection assay; format: in vivo, mouse; conditions: Dup2 TA, 4 weeks post-injection; agent alone (U7-ACCA 5e11vg IM; PDN 1 mg/kg/day ip); untreated Dup2 14.7±6.6
Excerpt: FIGS. 4A-4F. Intramuscular delivery of U7-ACCA results in significant N-truncated dystrophin expression in Dup2 mice, restoring localization of dystrophin-associated proteins. […] In wild type BI6 animals (FIG. 4B), the wild type transcript was 14.2% and Del2 transcript was 85.8%. (FIG. 4C) RNA-Seq read depth using a tibialis anterior muscle total RNA library from Dup2 U7-ACCA treated (upper) and Dup2 untreated (lower) mice, mapped to the 5′ region of the mouse Dmd gene (mm9, chrX:80,150,000-81,050,000). […] The protein induced in BI6 males injected with U7-ACCA is of the same size as that expressed in the Dup2 treated animals, confirming the size difference between this protein and the full-length isoform. (C-terminal antibody: PA1-21011,Thermo, Inc). […]
FIGS. 6A-6E. […] EBD-positive fibers were quantified as a percent out of a total of 5,000 fibers counted per animal.
We examined whether expression of the IRES-driven isoform improved muscle integrity and physiology in the Dup2 mouse. Similar to the case in mdx mice, dystrophic changes in Dup2 mice are quantifiable at 4 weeks of age as widespread muscle regeneration characterized by centralized nuclei (Vulin et al., manuscript in press). […] Quantification of the number of EBD positive fiber confirms that expression of the IRES driven isoform results in protection of muscle fibers in these mice (FIG. 6B). […]

dystrophin IRES [2] = assay: Dual luciferase IRES assay in 293K cells; format: cell-based
Excerpt: FIGS. 12A-12B. […] Error bars represent s.d. […] N=4 animals per group. Error bars represent s.d.
(§1) Furthermore, treatment with the glucocorticoids prednisone and deflazacort are standard treatment for DMD. […] Because utrophin translation may be regulated by corticosteroids and overexpression can compensate for absent dystrophin, we assessed utrophin levels in the same injected muscles (FIG. 5E).

utrophin = assay: Utrophin immunoblot in mouse muscle; format: in vivo; conditions: Dup2 mice, PDN 1 mg/kg/day treated versus untreated, with or without U7-ACCA
Protocol: (§2) FIGS. 5A-5F. […] (FIG. 5A) Dual luciferase assay performed on lysates from C2C12 cells transfected with the pRDEF vector carrying the exon 5-6 IRES construct. […] Error bars representate s.d. […] The image intensity for the wild-type lane was lowered to allow identification of bands. MHC=myosin heavy chain (loading control). […] Immunoblot was performed on each muscle in duplicate, and the signals for both dystrophin and α-actinin from the resulting 5 lanes were quantified using ImageJ. […] The signals for both utrophin and α-actinin from the resulting 5 lanes were quantified using ImageJ.
as §1

Dup2 mice [3] = assay: Muscle force following tetanic contraction; format: in vivo, mouse; conditions: Dup2 TA, 4 weeks; agent alone; untreated Dup2 170.9±14.3, BI6 274.0±12.1
Protocol: (§3) Dup2 tibialis anterior muscles were treated by intramuscular injection of 5e11vg U7-ACCA alone or with methylprednisolone (PDN: 1 mg/kg/day intraperitoneal) and analyzed at 4 weeks post-injection. […] EBD-positive fibers were quantified as a percent out of a total of 5,000 fibers counted per animal.

dystrophin IRES [4] = conditions: C2C12 cells, pRDEF exon 5-6 IRES construct, increasing concentrations
Protocol: as §2, §1

Dup2 mice [5] = assay: Loss of force following repetitive eccentric contractions; format: in vivo, mouse; conditions: Dup2 TA, 4 weeks; agent alone
dystrophin = assay: Dystrophin immunoblot in FibroMyoD cells; format: cell-based, human; conditions: Dup2 FibroMyoD cells treated with U7-ACCA and 6.4 μM PDN
Dup2 mice [6] = assay: Grip strength; format: in vivo, mouse; conditions: 4 weeks, agent alone, untreated Dup2 2.22±0.26, BI6 3.36±0.37
Protocol: as §3
(FIG. 17C) Immunostaining of dystrophin on the same samples confirms dystrophin expression and its proper localization at the sarcolemma.

Dup2 mice [7] = assay: Central nucleation of myofibers in Dup2 mouse muscle; format: in vivo; conditions: Dup2 TA, 4 weeks post-injection; agent alone (U7-ACCA 5e11vg IM; PDN 1 mg/kg/day ip); untreated Dup2 73.0±1.6
Protocol: Expression of the IRES-driven isoform improves muscle membrane integrity and protects Dup2 muscle from contraction-induced damage. Dup2 tibialis anterior muscles were treated by intramuscular injection of 5e11vg U7-ACCA alone or with methylprednisolone (PDN: 1 mg/kg/day intraperitoneal) and analyzed at 4 weeks post-injection. […] EBD-positive fibers were quantified as a percent out of a total of 5,000 fibers counted per animal.

DMD exon 2 = assay: RT-PCR of exon 2 skipping in patient-derived FibroMyoD cells; format: cell-based, human
Excerpt: FIGS. 3A-3D. Out-of-frame exon-skipping stimulates IRES activity in patient-derived cell lines. (FIG. 3A) Schematic representation of the human DMD exon 1-10 reading frame (blue) and 5′UTR (red). Blue numbers above each exon indicate cDNA positions; red numbers at the base of each exon indicate the amino acid position. The canonical actin binding domain 1 is represented, along with the predicted (via ScanProsite) CH and ABS domains. (FIG. 3B) Schematic representation of exon 2 (SEQ ID NO: 30). The selected targeted sequences are indicated below, affecting either splice acceptor (S.A.), splice donor (S.D.), or exon splice enhancer (E.S.E.) sequences (as predicted using Human Splicing Finder or ESE finder 3.0). (FIG. 3C) Two copies each of U7-C and U7-AL were cloned into the same AAV plasmid, as they were the most efficient in skipping exon 2 (see FIGS. 10A-10B). The resulting construct is referred to as U7-ACCA. RT-PCR results after infection of U7-ACCA vector (1E11 vg) or H2A antisense oligonucleotide (AON H2A) into either wt or duplicated exon 2 FibroMyoD (FM) cells. […]
In considering skipping of exons prior to the exon 5 IRES, only the removal of exon 2 will disrupt the reading frame and result in a premature stop codon (FIG. 3A). […]

Row | Molecule | Evans blue dye (EBD)-positive fibers (Dup2 mice [1]) | glucocorticoid activation of IRES (dystrophin IRES [2]) | utrophin levels (utrophin) | Normalized specific force following tetanic contraction (Dup2 mice [3]) | IRES activity, concentration dependence (dystrophin IRES [4]) | Protection from loss of force following repetitive eccentric contractions (Dup2 mice [5]) | dystrophin expression (dystrophin) | Normalized maximum hindlimb grip strength (Dup2 mice [6]) | Central nucleation (% of myofibers) (Dup2 mice [7]) | exon-skipping (RT-PCR, qualitative) (DMD exon 2; control and duplicated exon 2 patient-derived FibroMyoD, 3 days post AAV infection or AON transfection) | transcript lacking exon 2 (DMD exon 2; patient cell lines carrying mutation within exon 1 to 4, AAV 1×10E11 vector genomes)
1 | C[C@H]1C[C@@H]2[C@H]([C@@H](O)C[C@@]3(C)[C@H]2CC[C@]3(O)C(=O)CO)[C@@]2(C)C=CC(=O)C=C12 [PDN, 6-methyl-prednisolone] | No significant difference | not seen | no statistically significant difference; also recorded: does not increase expression of utrophin | No significant difference | increases IRES activity in a dose-dependent fashion | No significant difference | An increase in dystrophin expression | No significant difference | No significant difference |  | 
2 | AON H2A: known antisense oligonucleotide CCAUUUUGUGAAUGUUUUCUUUUGAACAUC (SEQ ID NO: 13), positive control of exon 2 skipping (chemistry not given here) |  |  |  |  |  |  |  |  |  | lower efficiency than U7-mediated skipping | approximately 90%
